Test results taken from patent US10654883B2, “Inorganic salts of nicotinic acid mononucleotide as anti-aging agents” (Jumpstart Fertility Pty Ltd, priority 2018, dated 2020).

Experiments:
[1] = tested on: COV434 cells; experiment: NAD cell assay (NAD cycling method) in COV434 cells; assay type: cell-based, human; conditions: 200 uM, 4 hr; for Fold increase compared to NaMN (NAD level): NAD normalised to protein
Protocol: NAD levels were assayed based on the NAD cycling method of Zhu and Rand, PLoS One (2012), herein incorporated by reference. COV434 cells were maintained in 6 well plates and treated with the indicated compounds at a concentration of 200 uM for 4 hr. Media was removed, plates were washed in cold PBS and cells were scraped down in NAD extraction buffer containing 10 mM nicotinamide, 50 mM Tris HCl, 0.1% Triton X-100. Cells were homogenised by sonication for 5 seconds, and samples were centrifuged at 7,000 g for 5 min at 4 degrees. Aliquots were taken for later protein assay, and samples were then passed through 10 kDa amicon filters at 14,000 g, 30 min at 4 degrees to remove proteins from the sample. Each sample was measured in technical triplicate, with 25 μL sample added to 100 μL ADH cycling mix (0.2 mg/ml alcohol dehydrogenase enzyme, 2% ethanol, 100 mM Tris pH 8.5). Samples were allowed to cycle for 10 min at room temperature, followed by 50 μL addition of an MTT/PMS solution (0.1 mM phenazine methosulfate, 0.8 mM 3-(4,5-Dimethylthiazol-2-yl)-2,5-diphenyltetrazoliwn bromide), 100 mM Tris-HCl pH 8.5). Plates were then incubated for 15 min and absorbance was measured at 570 nm. NAD concentrations were extrapolated from a standard curve, and normalised to protein concentrations determined by BCA protein assay.

[2] = Solution stability in aqueous solution (D2O), degradation measured by 1H-NMR
Protocol: Three separate 5 mg samples of the same batch of NaMN were completely dissolved without stirring in 0.5 ml of deuterated water (D2O), each in three separate NMR tubes. All three samples were analysed at the time of dissolution via ^1H-NMR for purity.
The first NMR tube was maintained at a temperature of 25° C. The second NMR tube was maintained at a temperature of 40° C. The third NMR tube was maintained at a temperature of 60° C. Degradation of the control NaMN was measured using ^1H-NMR. Degradation of the control NaMN in aqueous solutions was analyzed over a period of 36 weeks (see FIG. 1).
The stability of the salts I-001, I-002, I-003, and I-004 in aqueous solution phase was also tested. Following the same procedure described in the control NaMN, the respective solutions of I-001, I-002, I-003, and I-004 were maintained at 25° C. and analysed for 38 weeks.

SMILES | Fold increase compared to NaMN (NAD level) [1] | Fold Increase compared to NaMN on a molar basis (NAD level) [1] | degradation in aqueous solution ([2]; 25° C., week 10, D2O, 1H-NMR) | degradation in aqueous solution ([2]; 40° C., week 2, D2O, 1H-NMR, study halted) | degradation in aqueous solution ([2]; 60° C., after a week, D2O, 1H-NMR, study halted) | degradation in aqueous solution ([2]; 7 weeks, 10 mg/mL) | degradation in aqueous solution ([2]; 38 weeks, 10 mg/mL) | degradation in aqueous solution ([2]; 24 weeks, 10 mg/mL) | degradation in aqueous solution ([2]; 34 weeks, 10 mg/mL)
CC(=O)O[C@@H]1[C@H](OC(C)=O)[C@@H](COP(=O)([O-])O)O[C@H]1[n+]1cccc(C(=O)[O-])c1.[Na+] [Compound I-008, Sodium 1-((2R,3R, 4R, 5R)-3,4-diacetoxy-5-(((hydrogenphosphonato)oxy)methyl)tetrahydrofuran-2-yl)pyridine-1-ium-3-carboxylate] | 0.8 | 0.99 |  |  |  |  |  |  | 
O=C(O)c1ccc[n+]([C@@H]2O[C@H](COP(=O)(O)O)[C@@H](O)[C@H]2O)c1 [NaMN, nicotinic acid mononucleotide] | 1.0 | 1.0 | about 12.3% | 15.3% | 35% |  |  |  | 
O=C([O-])c1ccc[n+]([C@@H]2O[C@H](COP(=O)([O-])[O-])[C@@H](O)[C@H]2O)c1.[K+].[Na+] [Compound I-006, Potassium sodium 1-((2R,3R,4S,5R)-3,4-dihydroxy-5-((phosphonatooxy)methyl)tetrahydrofuran-2-yl)pyridine-1-ium-3-carboxylate] | 2.3 | 2.72 |  |  |  |  |  |  | 
O=C([O-])c1ccc[n+]([C@@H]2O[C@H](COP(=O)([O-])O)[C@@H](O)[C@H]2O)c1.[Na+] [Compound I-001, Sodium 1-((2R,3R,4S,5R)-5-(((hydrogenphosphonato)oxy)methyl)-3,4-dihydroxytetrahydrofuran-2-yl)pyridine-1-ium-3-carboxylate] | 3.0 | 3.23 |  |  |  | under 2% | 4.3% |  | 
CC(=O)O[C@@H]1[C@H](OC(C)=O)[C@@H](COP(=O)([O-])O)O[C@H]1[n+]1cccc(C(=O)[O-])c1.[K+] [Compound I-009, potassium 1-((2R,3R, 4R, 5R)-3,4-diacetoxy-5-(((hydrogenphosphonato)oxy)methyl)tetrahydrofuran-2-yl)pyridine-1-ium-3-carboxylate] | 1.0 | 1.39 |  |  |  |  |  |  | 
O=C([O-])c1ccc[n+]([C@@H]2O[C@H](COP(=O)([O-])O)[C@@H](O)[C@H]2O)c1.[K+] [Compound I-002, Potassium 1-((2R,3R,4S,5R)-5-(((hydrogenphosphonato)oxy)methyl)-3,4-dihydroxytetrahydrofuran-2-yl)pyridine-1-ium-3-carboxylate] | 0.8 | 0.84 |  |  |  | under 2% |  | 4.7% | 
O=C([O-])c1ccc[n+]([C@@H]2O[C@H](COP(=O)([O-])[O-])[C@@H](O)[C@H]2O)c1.[K+].[K+] [Compound I-004, Potassium 1-((2R,3R,4S,5R)-3,4-dihydroxy-5-((phosphonatooxy)methyl)-tetrahydrofuran-2-yl)pyridine-1-ium-3-carboxylate] | 1.3 | 1.57 |  |  |  | under 2% |  |  | 2.6%
O=C([O-])c1ccc[n+]([C@@H]2O[C@H](COP(=O)([O-])[O-])[C@@H](O)[C@H]2O)c1.[Na+].[Na+] [Compound I-003, Sodium 1-((2R,3R,4S,5R)-3,4-dihydroxy-5-((phosphonatooxy)methyl)-tetrahydrofuran-2-yl)pyridine-1-ium-3-carboxylate] | 1.0 | 1.08 |  |  |  | under 2% |  |  | 
